These results are taken from patent publication US20110306621A1, “ACYLGUANIDINE DERIVATIVES” (priority 2009, published 2011).

T1 sequence (P47898 whole entry): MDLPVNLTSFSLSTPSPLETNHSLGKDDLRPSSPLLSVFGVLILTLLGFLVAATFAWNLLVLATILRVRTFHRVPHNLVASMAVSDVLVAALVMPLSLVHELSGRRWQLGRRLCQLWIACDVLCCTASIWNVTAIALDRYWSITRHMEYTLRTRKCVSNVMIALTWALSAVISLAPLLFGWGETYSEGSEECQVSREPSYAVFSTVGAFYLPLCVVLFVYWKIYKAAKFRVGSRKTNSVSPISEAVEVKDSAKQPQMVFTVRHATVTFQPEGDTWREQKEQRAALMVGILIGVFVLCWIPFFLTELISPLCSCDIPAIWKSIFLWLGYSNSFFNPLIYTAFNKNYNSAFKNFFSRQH

The assay has as its target T1, human 5-HT5A receptor (Homo sapiens, UniProt P47898).
T1 construct: expressed in transfected cells; membranes used
In words: Test on a human 5-HT5A receptor binding inhibition ([3H]5-CT). The settings on record: membrane from HEK293 cells for forced expression of human 5-HT5A receptor; Ki calculated from IC50 and Kd of [3H]5-CT (4.95 nM). Here is the method: The ORF (open reading frame; protein coding region) of a human 5-HT5A receptor (Genbank AF498985) was cloned from a human hippocampus cDNA library, and then inserted into a pCR2.1 vector (Invitrogen), and Escherichia coli containing the plasmid was cultured in a large amount. Next, the full-length cDNA sequence of the human 5-HT5A receptor was analyzed, and recombined into a pcDNA3.1 vector (Invitrogen) as an expression vector and cultured in a large amount. HEK293 established cells (ATCC) derived from the human fetal kidney were seeded, the expression plasmid (1 μg) obtained above were added thereto with LIPOFECTAMINE 2000 (Invitrogen; 2 μl), the gene was transfected into HEK293 cells, and the expression cells were screened with a drug-resistant marker, Geneticin (G418 sulfate 500 μg/ml; Kanto Chemical Co., Inc.). Thus prepared recombinant cells which expressed the gene were cultured in a medium containing D-MEM (Dulbecco's modified eagle medium, Sigma), 10% FCS (Fetal calf serum: fetal bovine serum), 1% Pc./Sm (Penicillin/Streptomycin, Invitrogen), and 500 μg/ml G418 for 3 days. These experimental operations followed a manual for gene operation experiment and an instruction appended in a reagent, and the like, such as a known method (Sambrook, J. et al, Molecular Cloning-A Laboratory Manual”, Cold Spring Harabor laboratory, NY, 1989).
HEK293 cells for forced expressions of a human 5-HT5A receptor were cultured in a F500 plate, and scraped with a scraper. After centrifugation, the precipitate was collected, and an incubation buffer (50 mM Tris (HCl) (pH 7.4), 10 mM MgSO4, and 0.5 mM EDTA (ethylenediamine tetraacetic acid)) was added thereto. After homogenization, it was further centrifuged, and the incubation buffer was added to the precipitate, followed by thoroughly suspending. The operation was repeated, and protein concentration was measured, thereby completing preparation of the membrane.
A solution of the compound to be tested and 100 μM 5-CT (5-carboxamidetriptamine) in DMSO was added to a 96-well plate at 2 μl/well, suspended in an incubation buffer, and a membrane from HEK293 cells for forced expressions of a human 5-HT5A receptor prepared at 200 μg/ml was added at 100 μl/well. After incubation at room temperature for 15 minutes, a [^3H]5-CT solution (2 nM [^3H]5-CT, incubation buffer) was added thereto at 100 μl/well.
Separately, 100 μl of the solution was distributed into a liquid scintillation vial, and 2 ml of Aquasol II (registered trademark) was added thereto, followed by stirring. Then, radioactivity was measured by a liquid scintillation counter. It was incubated at 37° C. for 60 minutes. The reaction mixture was sucked into 96-well GF/C filter plate that had been pre-treated with 0.2% polyethyleneimine, and washed six times with an ice-cooled, 50 mM Tris (pH 7.5) buffer. The GF/C filter plate was dried.
Microscint TMPS (registered trademark) was added thereto at 40 μl/well. Radioactivity remaining on the GF/C filter plate was measured by a top counter.
The [^3H]5-CT binding inhibiting activity by the compound to be tested in each experiment was determined as an IC50 value with a radioactivity upon addition of DMSO alone being 0% inhibition, and a radioactivity upon addition of 1 μM 5-CT being 100% inhibition. Separately, Ki values were calculated from the Kd value of the [^3H]5-CT determined from Scatchard analysis, by the following equation.
Ki=IC50 (1+Concentraion of ligand added/Kd (4.95 nM))
As usually defined, the Ki is the equilibrium dissociation constant of an inhibitor or competing ligand from its target. In the case of `NC(N)=NC(=O)c1ccc2cccc(-c3ccnc4ccccc34)c2c1` [Example 129], the inhibition constant Ki is 0.3 to 3 nM.
The result for `NC(N)=NC(=O)c1ccc2cccc(-c3cncc4ccccc34)c2c1` [Example 130] reads 3 to 30 nM.
The value for `NC(N)=NC(=O)c1ccc2cccc(-c3c(O)cc(F)cc3F)c2c1` [Example 131] was 0.3 to 3 nM.
With `N#Cc1ccc(-c2cccc3ccc(C(=O)N=C(N)N)cc23)c(O)c1` [Example 132], the inhibition constant (Ki) was 0.3 to 3 nM.
The value for `NC(N)=NC(=O)c1ccc2cccc(-c3ccncc3)c2c1` [Example 133] was 3 to 30 nM.
For `NC(N)=NC(=O)c1ccc2cccc(-c3ccc(F)cn3)c2c1` [Example 134], the inhibition constant Ki is 3 to 30 nM.
Turning to `NC(N)=NC(=O)c1ccc2cccc(-c3ncccc3F)c2c1` [Example 135], the Ki was 3 to 30 nM.
The result for `COc1ccccc1-c1c(Cl)cc(Cl)c2ccc(C(=O)N=C(N)N)cc12` [Example 136] reads 3 to 30 nM; that for `Cc1nc(-c2ccc(-c3cccc4ccc(C(=O)N=C(N)N)cc34)cc2)no1` [Example 137], 3 to 30 nM; that for `NC(N)=NC(=O)c1ccc2cccc(-c3ccccc3C3CC3)c2c1` [Example 138], 0.3 to 3 nM.
The result for `NC(N)=NC(=O)c1ccc2cccc(-c3cc(Cl)c(F)cc3F)c2c1` [Example 139] reads 0.3 to 3 nM; that for `NC(N)=NC(=O)c1ccc2cccc(-c3c(F)cc(F)cc3Cl)c2c1` [Example 140], 0.3 to 3 nM; that for `Cc1cc(-c2cccc3ccc(C(=O)N=C(N)N)cc23)ccn1` [Example 141], 3 to 30 nM.
Consider `NC(N)=NC(=O)c1ccc2cccc(-c3c(F)cc(O)cc3F)c2c1` [Example 142], for which the Ki is 0.3 to 3 nM.
The result for `NC(N)=NC(=O)c1ccc2cccc(-c3c(F)cc(F)c(O)c3F)c2c1` [Example 143] reads 0.3 to 3 nM.
The result for `Cc1nc2cccc(-c3cccc4ccc(C(=O)N=C(N)N)cc34)c2o1` [Example 144] reads 3 to 30 nM.
The value for `COc1cc(C#N)ccc1-c1c(Cl)ccc2ccc(C(=O)N=C(N)N)cc12` [Example 145] was 0.3 to 3 nM; that for `COc1ncccc1-c1c(Cl)ccc2ccc(C(=O)N=C(N)N)cc12` [Example 146] was 0.3 to 3 nM; that for `NC(N)=NC(=O)c1ccc2ccc(Cl)c(-c3ccncc3)c2c1` [Example 147] was 0.3 to 3 nM.
As for `NC(N)=NC(=O)c1ccc2cccc(-c3c(F)cncc3Cl)c2c1` [Example 148], the inhibitory constant (Ki) was 0.3 to 3 nM.
The result for `N#Cc1cc(F)cc(F)c1-c1cccc2ccc(C(=O)N=C(N)N)cc12` [Example 149] reads 0.3 to 3 nM; that for `NC(N)=NC(=O)c1ccc2cccc(-c3ccc(Cl)cc3O)c2c1` [Example 150], 0.3 to 3 nM; that for `NC(N)=NC(=O)c1ccc2cccc(-c3ncc(Cl)cc3Cl)c2c1` [Example 151], 0.3 to 3 nM.
Consider `Cc1cc(Cl)cnc1-c1cccc2ccc(C(=O)N=C(N)N)cc12` [Example 152], for which the inhibitory constant (Ki) was 3 to 30 nM.
The value for `NC(N)=NC(=O)c1ccc2cccc(-c3ccc(Cl)cn3)c2c1` [Example 153] was 3 to 30 nM; that for `NC(N)=NC(=O)c1ccc2cccc(-c3cccc(C(F)(F)F)n3)c2c1` [Example 154] was 3 to 30 nM.
The result for `N#Cc1cc(F)c(-c2cccc3ccc(C(=O)N=C(N)N)cc23)c(F)c1` [Example 155] reads 0.3 to 3 nM; that for `NC(N)=NC(=O)c1ccc2ccc(Cl)c(-c3ccncc3F)c2c1` [Example 156], 0.3 to 3 nM; that for `NC(N)=NC(=O)c1ccc2ccc(Cl)c(-c3ccncc3Cl)c2c1` [Example 157], 0.3 to 3 nM.
The result for `Cc1nc(-c2cccc3ccc(C(=O)N=C(N)N)cc23)ccc1F` [Example 158] reads 30 to 300 nM; that for `COc1cccc(-c2cccc3ccc(C(=O)N=C(N)N)cc23)n1` [Example 159], 3 to 30 nM.
Consider `NC(N)=NC(=O)c1ccc2ccc(F)c(-c3ccncc3Cl)c2c1` [Example 160], for which the Ki was 0.3 to 3 nM.
The value for `NC(N)=NC(=O)c1ccc2ccc(F)c(-c3ccccc3O)c2c1` [Example 161] was 0.3 to 3 nM; that for `Cc1ccc2ccc(C(=O)N=C(N)N)cc2c1-c1ccccc1O` [Example 162] was 3 to 30 nM; that for `Cc1nc(C2CC2)sc1-c1cccc2ccc(C(=O)N=C(N)N)cc12` [Example 163] was 3 to 30 nM.
The result for `N#Cc1cccc(Cl)c1-c1cccc2ccc(C(=O)N=C(N)N)cc12` [Example 164] reads 3 to 30 nM; that for `NC(N)=NC(=O)c1ccc2cccc(-c3nccc4ccccc34)c2c1` [Example 165], 3 to 30 nM; that for `Cc1cc(-c2cccc3ccc(C(=O)N=C(N)N)cc23)cc(C)n1` [Example 166], 3 to 30 nM.
The value for `NC(N)=NC(=O)c1ccc2cccc(-c3cccc4ccncc34)c2c1` [Example 167] was 0.3 to 3 nM; that for `NC(N)=NC(=O)c1ccc2cccc(-c3ncccc3C(F)(F)F)c2c1` [Example 168] was 30 to 300 nM.
Regarding `NC(N)=NC(=O)c1ccc2cccc(-c3ncc(F)cc3Cl)c2c1` [Example 169], the inhibition constant Ki was 0.3 to 3 nM.
For `N#Cc1cc(-c2cccc3ccc(C(=O)N=C(N)N)cc23)ccn1` [Example 170], the Ki is 3 to 30 nM.
The result for `NC(=O)c1cc(-c2cccc3ccc(C(=O)N=C(N)N)cc23)ccn1` [Example 171] reads 30 to 300 nM; that for `NC(N)=NC(=O)c1ccc2cccc(-c3ccnc(Cl)c3F)c2c1` [Example 172], 3 to 30 nM; that for `NC(N)=NC(=O)c1ccc2cccc(-c3c[nH]c4ccccc34)c2c1` [Example 173], 3 to 30 nM.
The result for `COc1nc(C)ccc1-c1c(Cl)ccc2ccc(C(=O)N=C(N)N)cc12` [Example 174] reads 0.3 to 3 nM.
The result for `NC(N)=NC(=O)c1ccc2c(F)ccc(-c3c(F)cccc3F)c2c1` [Example 175] reads 0.3 to 3 nM.
Turning to `NC(N)=NC(=O)c1ccc2cccc(-c3cc(C(F)(F)F)ccn3)c2c1` [Example 176], the Ki is 30 to 300 nM.
The result for `NC(N)=NC(=O)c1ccc2cccc(-c3c(F)ccc(F)c3O)c2c1` [Example 177] reads 0.3 to 3 nM; that for `NC(N)=NC(=O)c1ccc2cccc(-c3cccc(Cl)c3O)c2c1` [Example 178], 0.3 to 3 nM.
Regarding `NC(N)=NC(=O)c1ccc2cccc(-c3cccc4nonc34)c2c1` [Example 179], the Ki is 3 to 30 nM.
The value for `NC(N)=NC(=O)c1ccc2cccc(-c3ncc(Cl)cc3F)c2c1` [Example 180] was 3 to 30 nM.
With `N#Cc1cccnc1-c1cccc2ccc(C(=O)N=C(N)N)cc12` [Example 181], the Ki is 30 to 300 nM.
On to `NC(N)=NC(=O)c1ccc2cccc(-c3cncs3)c2c1` [Example 182], for which the Ki was 3 to 30 nM.
The value for `NC(N)=NC(=O)c1ccc2cccc(-c3cc(C(F)(F)F)ncn3)c2c1` [Example 183] was 3 to 30 nM; that for `N#Cc1ccc(-c2cccc3ccc(C(=O)N=C(N)N)cc23)nc1` [Example 184] was 3 to 30 nM.
Turning to `NC(N)=NC(=O)c1ccc2cccc(-c3cc(C4CC4)ncc3Cl)c2c1` [Example 185], the inhibitory constant (Ki) was 0.3 to 3 nM.
The result for `Cc1nc(C)c(-c2c(F)ccc3ccc(C(=O)N=C(N)N)cc23)s1` [Example 186] reads 0.3 to 3 nM; that for `NC(N)=NC(=O)c1ccc2cccc(-c3ccnc(C(F)(F)F)n3)c2c1` [Example 187], 3 to 30 nM.
The value for `COc1cc(C#N)ccc1-c1ccc(F)c2ccc(C(=O)N=C(N)N)cc12` [Example 188] was 0.3 to 3 nM.
Regarding `NC(N)=NC(=O)c1ccc2cccc(-c3ccc(C(F)(F)F)cn3)c2c1` [Example 189], the Ki is 3 to 30 nM.
Regarding `NC(N)=NC(=O)c1ccc2cccc(-c3ncc(F)cc3F)c2c1` [Example 190], the Ki was 0.3 to 3 nM.
The value for `NC(N)=NC(=O)c1ccc2cccc(-c3c(F)cccc3C3CC3)c2c1` [Example 191] was 0.3 to 3 nM.
